Reference: US5776739A, “Process for producing disaccharides and novel disaccharides” (Kyowa Hakko Kogyo Co., Ltd., priority 1919, dated 1998)

Columns and labels:
alkaline phosphatase [1] = assay: Residual alkaline phosphatase activity after storage as solution at room temperature (Test Example 1); format: biochemical, calf; conditions: for effective as a stabilizer for alkaline phosphatase: overall conclusion from Test Examples 1-4; for Residual activity: sugar 50 mM, solution, room temperature (25° C.), 24 hours
Description: A sample solution (unsupplemented) was prepared by diluting alkaline phosphatase (derived from calf small intestine, Boehringer Mannheim Biochemica) with distilled water. Other sample solutions were prepared by adding, to the above solution, trehalose, maltose, glucosyl (α, 1-1)D-fucose or glucosyl (α, 1-4)L-fucose to the concentration of 50 mM. The sample solutions were allowed to stand at room temperature (25° C.) for 24 hours, and the activity of alkaline phosphatase in each of the sample solutions was determined.
The activity of alkaline phosphatase was determined as follows.
(§1) Each of the sample solutions (10 μl) was incubated at 37° C. in 2.0 ml of the reaction mixture consisting of 1M diethanol-amine buffer (pH 10.2), 0.2 mM magnesium chloride and 5 mM p-nitrophenyl phosphoric acid. Then, the enzyme activity was determined by the amount of p-nitrophenol produced therein, which was culculated on the basis of change in absorbance at 405 nm. The activity of each of the sample solutions immediately after the preparation was defined as 100%, and the residual activity in the stored sample solution was calculated.

alkaline phosphatase [2] = assay: Residual alkaline phosphatase activity after storage in frozen form (Test Example 2); format: biochemical, calf; conditions: sugar 50 mM; stored frozen at -20° C. for 6 days
Description: as §1
(§2) A sample solution (unsupplemented) was prepared by diluting alkaline phosphatase with distilled water. Other sample solutions were prepared by adding, to the above solution, trehalose, maltose, glucosyl (α, 1-1)D-fucose or glucosyl (α, 1-4)L-fucose to the concentration of 50 mM. The sample solutions were stored in frozen form at -20° C. for 6 days. After thawing at room temperature, the activity of alkaline phosphatase in each of the sample solutions was determined in a manner similar to that employed in Test Example 1. The activity of each of the sample solutions immediately after preparation was defined as 100%, and the residual activity in the stored sample solution was calculated.

alkaline phosphatase [3] = assay: Residual alkaline phosphatase activity after repeated freezing and thawing (Test Example 3); format: biochemical, calf; conditions: sugar 50 mM; frozen (dry ice/ethanol) and thawed 10 times
Description: as §1
as §2, with “mM. Each of the” for “mM. The”, “solutions was” for “solutions were stored in”, “frozen by dry ice/ethanol and thawed” for “frozen form at -20° C. for 6 days. After thawing”, “room temperature repeatedly 10 times in total. The” for “room temperature, the”, “after the” for “after”, “the frozen and thawed” for “the stored”

alkaline phosphatase [4] = assay: Residual alkaline phosphatase activity after storage as dried powder (Test Example 4); format: biochemical, calf; conditions: sugar 50 mM; dry powder stored at 50° C. for 24 hours
Description: as §1
A sample solution (unsupplemented) was prepared by diluting alkaline phosphatase with distilled water. Other sample solutions were prepared by adding, to the above solution, trehalose, maltose, glucosyl (α, 1-1)D-fucose or glucosyl (α, 1-4)L-fucose to the concentration of 50 mM. Each of the sample solutions was evaporated at room temperature to dryness using a vacuum pump to obtain dry powder, and the dry powder was stored at 50° C. for 24 hours. The activity of alkaline phosphatase in each of the sample solutions was determined in a manner similar to that employed in Test Example 1. The activity of each of the sample solutions immediately after preparation was defined as 100%, and the residual activity in the stored sample solution was calculated.

[5] = C. Colaco et al., Bio/Technology, 10, 1007-1011 (1992); cited from earlier work

Compound | effective as a stabilizer for alkaline phosphatase (alkaline phosphatase [1]) | Residual activity (alkaline phosphatase [1]) [%] | Residual activity (alkaline phosphatase [2]) [%] | Residual activity (alkaline phosphatase [3]) [%] | Residual activity (alkaline phosphatase [4]) [%] | enhance the stability of biopolymers such as enzyme proteins [5]
OC[C@H]1O[C@H](O[C@H]2[C@H](O)[C@@H](O)[C@H](O)O[C@@H]2CO)[C@H](O)[C@@H](O)[C@@H]1O [Maltose, glucosyl(α,1-4)D-glucose] | effective as a stabilizer for alkaline phosphatase | 3.3 | 20.0 | 16.3 | 41.0 | 
C[C@H]1O[C@H](O[C@H]2O[C@H](CO)[C@@H](O)[C@H](O)[C@H]2O)[C@H](O)[C@@H](O)[C@H]1O [Glucosyl (α, 1-1) D-fucose, glucosyl (α, 1-1)D-fucose] | effective as a stabilizer for alkaline phosphatase | 21.8 | 36.3 | 65.0 | 62.5 | 
C[C@@H]1OC(O)[C@@H](O)[C@H](O)[C@@H]1O[C@H]1O[C@H](CO)[C@@H](O)[C@H](O)[C@H]1O (stereo partly drawn) [Glucosyl (α, 1-4) L-fucose, glucosyl (α, 1-4)L-fucose] | effective as a stabilizer for alkaline phosphatase | 93.7 | 76.0 | 106.0 | 83.0 | 
OC[C@H]1O[C@H](O[C@H]2O[C@H](CO)[C@@H](O)[C@H](O)[C@H]2O)[C@H](O)[C@@H](O)[C@@H]1O [Trehalose, glucosyl(α,1-1)D-glucose] | effective as a stabilizer for alkaline phosphatase | 9.4 | 26.4 | 21.6 | 55.0 | enhance the stability of biopolymers such as enzyme proteins
